Read-outs that look alike come from different tables or passages of the source.
Legend:
[1] = target: T1, soluble guanylate cyclase (sGC) (Homo sapiens (Human), UniProt Q02108+Q02153); experiment: sGC-HEK-cGMP assay run in the absence of SNP (HEK WC assay); assay type: cell-based; conditions: compound at 30 μM, absence of SNP
Method: Human embryonic kidney cells (HEK293), endogenously expressing soluble guanylate cyclase (sGC), were used to evaluate the activity of test compounds. Compounds stimulating the sGC receptor should cause an increase in the intracellular concentration of cGMP. HEK 293 cells were seeded in Dulbecco's Modification of Eagle's Medium supplemented with fetal bovine serum (10% final) and L-glutamine (2 mM final) in a 200 μL volume at a density of 1×10^5 cells/well in a poly-D-lysine coated 96 well flat bottom plate and grown overnight at 37° C. Medium was aspirated and cells were washed with 1× Hank's Buffered Saline Salt Solution (200 μL). Cells were then incubated for 15 minutes at 37° C. with 0.5 mM 3-isobutyl-1-methylxanthine (200 μL). Test article was then added to the assay mixture (2 μL) and incubated at 37° C. for 10 minutes. After the 10 minute incubation, the assay mixture was aspirated and 0.1M HCl (200 μL) was added to the cells. The plate was incubated at 4° C. for 30 minutes in the 0.1M HCl to stop the reaction and lysed the cells. The plates were then centrifuged at 1,200 g for 5 minutes at room temperature. Supernatants were collected and transferred to a new flat bottom 96 well plate for analysis. Vehicle controls were carried out using DMSO (1%). A known sGC stimulator, BAY 41-2272, was used as the positive control. Samples were diluted with an equal volume of 1 M Ammonium Acetate (pH 7) to neutralize samples for better chromatography. A 2× cGMP standard curve was prepared in 0.1 M HCl and then diluted with an equal volume of 1 M Ammonium Acetate, with the following final concentrations in nM: 1024, 512, 256, 128, 64, 32, 16, 8, 4, 2, 1. cGMP concentrations were determined from each sample using the LC/MS conditions (Table 2 below) and calculated standard curve. EC50 values were calculated from concentration-response curves generated with GraphPad Prism Software.

[2] = target: T1, soluble guanylate cyclase (sGC); experiment: sGC-HEK-cGMP assay run with SNP incubation (HEK WC assay); assay type: cell-based; conditions: for HEK WC Assay (fold increase at 30 μM in the presence of 10 μM SNP): compound at 30 μM; for EC50: in the presence of 10 uM SNP
In short: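 EC50 values derive from concentration-response curves of intracellular cGMP in HEK293 cells, which express sGC endogenously. Compound and sodium nitroprusside were co-incubated 10 min at 37 °C after a 15-min 0.5 mM IBMX step, with 0.1 M HCl lysis and 1% DMSO vehicle.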

[3] = read-out: HEK WC Assay (% Emax at 1 μM with 10 uM SNP)
[4] = read-out: HEK WC Assay (% Emax at 10 μM with 10 uM SNP)
[5] = read-out: HEK WC Assay (% Emax at 30 μM with 10 uM SNP)

T1 sequence (Q02153 whole entry): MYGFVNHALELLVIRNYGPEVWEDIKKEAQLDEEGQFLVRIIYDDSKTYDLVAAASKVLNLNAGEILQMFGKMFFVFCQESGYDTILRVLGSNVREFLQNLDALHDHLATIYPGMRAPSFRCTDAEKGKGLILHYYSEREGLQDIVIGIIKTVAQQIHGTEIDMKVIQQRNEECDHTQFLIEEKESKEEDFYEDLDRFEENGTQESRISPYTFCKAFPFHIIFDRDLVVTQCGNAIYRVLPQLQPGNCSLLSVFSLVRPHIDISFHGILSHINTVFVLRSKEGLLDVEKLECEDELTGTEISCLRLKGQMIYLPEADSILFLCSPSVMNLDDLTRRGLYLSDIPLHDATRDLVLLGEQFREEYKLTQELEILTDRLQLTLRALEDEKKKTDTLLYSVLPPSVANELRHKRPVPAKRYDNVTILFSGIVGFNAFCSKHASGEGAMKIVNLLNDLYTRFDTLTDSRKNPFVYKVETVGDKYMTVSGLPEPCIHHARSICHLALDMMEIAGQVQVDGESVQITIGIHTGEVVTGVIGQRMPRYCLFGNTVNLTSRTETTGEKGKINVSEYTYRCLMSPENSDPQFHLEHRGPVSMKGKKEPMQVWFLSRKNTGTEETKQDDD
T1 sequence (Q02108 whole entry): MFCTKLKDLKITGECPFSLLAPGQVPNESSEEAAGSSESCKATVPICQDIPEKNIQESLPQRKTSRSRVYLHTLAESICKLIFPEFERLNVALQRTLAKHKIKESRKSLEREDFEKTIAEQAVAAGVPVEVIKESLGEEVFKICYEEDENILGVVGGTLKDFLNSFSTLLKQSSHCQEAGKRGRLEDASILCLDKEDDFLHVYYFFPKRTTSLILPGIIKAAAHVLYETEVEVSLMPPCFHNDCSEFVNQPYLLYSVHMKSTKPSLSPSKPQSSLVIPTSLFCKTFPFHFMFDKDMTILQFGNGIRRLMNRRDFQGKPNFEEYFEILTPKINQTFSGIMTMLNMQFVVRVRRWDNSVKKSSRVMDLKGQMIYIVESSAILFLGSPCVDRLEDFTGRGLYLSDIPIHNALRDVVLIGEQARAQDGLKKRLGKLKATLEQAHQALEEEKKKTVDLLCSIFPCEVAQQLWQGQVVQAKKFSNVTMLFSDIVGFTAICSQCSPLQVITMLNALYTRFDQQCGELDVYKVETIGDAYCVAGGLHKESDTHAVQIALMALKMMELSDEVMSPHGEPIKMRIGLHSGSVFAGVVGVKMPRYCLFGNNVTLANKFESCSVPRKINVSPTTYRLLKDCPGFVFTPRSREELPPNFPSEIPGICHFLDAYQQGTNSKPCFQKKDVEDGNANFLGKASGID

HEK WC Assay (fold increase at 30 μM in the absence of SNP) [1] | HEK WC Assay (fold increase at 30 μM in the presence of 10 μM SNP) [2] | EC50 [2] [µM] | Emax [2, 3] [%] | Emax [2, 4] [%] | Emax [2, 5] [%] | Structure (SMILES)
C (C = 2 to <5 fold increase) | E (E = 10 to <20 fold increase) | 60 to 100 | 0 to 10 | 20 to 40 | 20 to 40 | Nc1nc(-c2cc(-c3ccon3)n(Cc3ccccc3F)n2)ncc1NC(=O)[C@@H]1CCCN1 [Compound I-225]
E (E = 10 to <20 fold increase) | F (F = 20 to <30 fold increase) | < 20 | 40 to 60 | 80 to 100 | 60 to 80 | CC(F)(F)C(=O)Nc1cnc(-c2cc(-c3ccon3)n(Cc3ccccc3F)n2)nc1N [Compound I-226]
F (F = 20 to <30 fold increase) | F (F = 20 to <30 fold increase) | < 20 | 40 to 60 | 60 to 80 | 60 to 80 | C/C=C(\C)C(=O)Nc1cnc(-c2cc(-c3ccon3)n(Cc3ccccc3F)n2)nc1N [Compound I-227]
C (C = 2 to <5 fold increase) | E (E = 10 to <20 fold increase) | 20 to 40 | 10 to 20 | 40 to 60 | 40 to 60 | CN(C(=O)c1ccccc1)c1cnc(-c2cc(-c3ccon3)n(Cc3ccccc3F)n2)nc1N [Compound I-228]
C (C = 2 to <5 fold increase) | E (E = 10 to <20 fold increase) | 20 to 40 | 20 to 40 | 40 to 60 | 20 to 40 | CO[C@@](C(=O)Nc1cnc(-c2cc(-c3ccon3)n(Cc3ccccc3F)n2)nc1N)(c1ccccc1)C(F)(F)F [Compound I-229]
E (E = 10 to <20 fold increase) | E (E = 10 to <20 fold increase) | < 20 | 60 to 80 | 80 to 100 | 80 to 100 | CC1(C(=O)Nc2cnc(-c3cc(-c4ccon4)n(Cc4ccccc4F)n3)nc2N)CCCCC1 [Compound I-231]
C (C = 2 to <5 fold increase) | E (E = 10 to <20 fold increase) | < 20 | 20 to 40 | 60 to 80 | 60 to 80 | CC1(C(=O)Nc2cnc(-c3cc(-c4ccon4)n(Cc4ccccc4F)n3)nc2N)CCCO1 (centres unmarked) [Compound I-232]
E (E = 10 to <20 fold increase) | F (F = 20 to <30 fold increase) | < 20 | 80 to 100 | 80 to 100 | 80 to 100 | Nc1nc(-c2cc(-c3ccon3)n(Cc3ccccc3F)n2)ncc1NC(=O)C12CC3CC(CC(C3)C1)C2 [Compound I-233]
C (C = 2 to <5 fold increase) | E (E = 10 to <20 fold increase) | < 20 | 20 to 40 | 40 to 60 | 40 to 60 | CN(C(=O)C(C)(C)C)c1cnc(-c2cc(-c3ccon3)n(Cc3ccccc3F)n2)nc1N [Compound I-234]
C (C = 2 to <5 fold increase) | E (E = 10 to <20 fold increase) | < 20 | 20 to 40 | 60 to 80 | 60 to 80 | CC(C)(C(=O)Nc1cnc(-c2cc(-c3ccon3)n(Cc3ccccc3F)n2)nc1N)c1ccccc1 [Compound I-236]
D (D = 5 to <10 fold increase) | E (E = 10 to <20 fold increase) | < 20 | 40 to 60 | 60 to 80 | 60 to 80 | Nc1nc(-c2cc(-c3ccon3)n(Cc3ccccc3F)n2)ncc1NC(=O)/C=C/c1ccccc1 [Compound I-239]
E (E = 10 to <20 fold increase) | E (E = 10 to <20 fold increase) | < 20 | 60 to 80 | 60 to 80 | 60 to 80 | CC(C)=CC(=O)Nc1cnc(-c2cc(-c3ccon3)n(Cc3ccccc3F)n2)nc1N [Compound I-240]
D (D = 5 to <10 fold increase) | E (E = 10 to <20 fold increase) | < 20 | 20 to 40 | 60 to 80 | 40 to 60 | O=S(=O)(c1ccc(F)cc1)c1cnc(-c2cc(-c3ccon3)n(Cc3ccccc3F)n2)nc1O [Compound I-241]
D (D = 5 to <10 fold increase) | E (E = 10 to <20 fold increase) | < 20 | 40 to 60 | 40 to 60 | 60 to 80 | Nc1nc(-c2cc(-c3ccon3)n(Cc3ccccc3F)n2)ncc1NC(=O)C1(C(F)(F)F)CCC1 [Compound I-243]
D (D = 5 to <10 fold increase) | E (E = 10 to <20 fold increase) | 20 to 40 | 20 to 40 | 40 to 60 | 40 to 60 | Nc1nc(-c2cc(-c3ccon3)n(Cc3ccccc3F)n2)ncc1NC(=O)C(F)(F)c1ccccc1 [Compound I-244]
D (D = 5 to <10 fold increase) | E (E = 10 to <20 fold increase) | 20 to 40 |  | 60 to 80 | 40 to 60 | O=c1[nH]c2cnc(-c3cc(-c4ccon4)n(Cc4ccccc4F)n3)nc2[nH]1 [Compound I-281]
C (C = 2 to <5 fold increase) | D (D = 5 to <10 fold increase) |  |  | 20 to 40 | 20 to 40 | Fc1ccccc1Cn1nc(-c2ccccn2)cc1-c1cnco1 [Compound I-285]
B (B = 1 to <2 fold increase) | C (C = 2 to <5 fold increase) |  |  | 0 to 10 | 0 to 10 | Fc1ccccc1Cn1nc(-c2ccccn2)cc1N1CCC1 [Compound I-287]
C (C = 2 to <5 fold increase) | C (C = 2 to <5 fold increase) |  |  |  |  | Fc1ccccc1Cn1nc(-c2ccccn2)cc1N1CCCC1 [Compound I-288]
B (B = 1 to <2 fold increase) | B (B = 1 to <2 fold increase) |  |  | 0 to 10 | 0 to 10 | Fc1ccccc1Cn1nc(-c2ccccn2)cc1-n1cncn1 [Compound I-289]
B (B = 1 to <2 fold increase) | C (C = 2 to <5 fold increase) |  |  | 10 to 20 | 20 to 40 | Fc1ccccc1Cn1nc(-c2ncccn2)cc1C1=NCCO1 [Compound I-290]
B (B = 1 to <2 fold increase) | B (B = 1 to <2 fold increase) |  |  | 0 to 10 | 0 to 10 | COc1oc(-c2cc(-c3ncccn3)nn2Cc2ccccc2F)nc1C [Compound I-291]
B (B = 1 to <2 fold increase) | B (B = 1 to <2 fold increase) |  |  | 0 to 10 | 0 to 10 | CCOc1cnc(-c2cc(-c3ncccn3)nn2Cc2ccccc2F)o1 [Compound I-292]
C (C = 2 to <5 fold increase) | C (C = 2 to <5 fold increase) | 40 to 60 |  | 20 to 40 | 20 to 40 | N#Cc1cc(-c2ncccn2)nn1Cc1ccccc1F [Compound I-293]
B (B = 1 to <2 fold increase) | C (C = 2 to <5 fold increase) | 40 to 60 |  | 0 to 10 | 10 to 20 | Oc1coc(-c2cc(-c3ncccn3)nn2Cc2ccccc2F)n1 [Compound I-295]

— patent US10189809B2, “SGC stimulators” (Ironwood Pharmaceuticals, Inc., priority 2010, dated 2019)
